In US7776845B2, “Pharmaceutical compositions” (Harbor Biosciences, Inc., priority 1999, dated 2010):

Key:
[1] = target: T1, androgen receptor (AR) (Homo sapiens, UniProt P10275); assay: Induction of AR-mediated transcriptional activity (MMTV-CAT reporter assay); type: cell-based; settings: PC-3 cells co-transfected with AR plasmid and MMTV-CAT; compounds at 1000, 10 and 0.1 nM; FIG. 1
T1 construct: expressed in transfected cells; host or cells: PC-3 (AR-negative human prostate cancer cell line)
T1 sequence (P10275 1-920): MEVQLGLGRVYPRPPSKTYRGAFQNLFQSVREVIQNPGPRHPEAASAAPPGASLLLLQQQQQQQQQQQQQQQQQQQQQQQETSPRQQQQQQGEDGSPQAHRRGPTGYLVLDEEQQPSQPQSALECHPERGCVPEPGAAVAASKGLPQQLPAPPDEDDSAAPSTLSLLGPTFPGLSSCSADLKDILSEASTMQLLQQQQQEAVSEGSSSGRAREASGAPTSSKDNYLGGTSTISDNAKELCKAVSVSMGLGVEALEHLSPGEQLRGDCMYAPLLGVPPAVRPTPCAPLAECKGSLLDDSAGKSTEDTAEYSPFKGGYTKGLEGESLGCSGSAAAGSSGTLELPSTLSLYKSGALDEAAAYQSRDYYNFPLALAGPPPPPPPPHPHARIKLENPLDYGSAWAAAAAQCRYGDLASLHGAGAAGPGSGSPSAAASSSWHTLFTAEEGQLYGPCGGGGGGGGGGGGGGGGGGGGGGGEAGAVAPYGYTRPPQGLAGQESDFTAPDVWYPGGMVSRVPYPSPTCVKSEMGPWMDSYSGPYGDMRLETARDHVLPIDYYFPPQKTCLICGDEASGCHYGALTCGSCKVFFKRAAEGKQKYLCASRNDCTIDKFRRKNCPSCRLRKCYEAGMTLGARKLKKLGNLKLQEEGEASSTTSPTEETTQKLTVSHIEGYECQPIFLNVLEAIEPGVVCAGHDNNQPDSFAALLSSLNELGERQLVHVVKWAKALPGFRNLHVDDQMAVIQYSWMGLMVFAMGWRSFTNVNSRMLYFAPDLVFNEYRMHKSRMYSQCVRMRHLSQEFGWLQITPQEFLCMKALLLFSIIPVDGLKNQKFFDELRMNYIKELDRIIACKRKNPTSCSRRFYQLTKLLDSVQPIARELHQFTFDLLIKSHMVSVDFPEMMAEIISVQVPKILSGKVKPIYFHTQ
Experimental: (§1) AR activity assay. […] Ethynyl derivatized steroids were purchased from Steraloids.
Induction of AR-mediated transcriptional activity. Steroid compounds were screened for their ability to induce AR transcriptional activity in the AR-negative PC-3 cell line. The results of the CAT assay were obtained by transient co-transfection of AR plasmid and a reporter plasmid (MMTVCAT) containing the CAT gene linked to the androgen response element (ARE). After transfection, the cells were treated with various DHEA derivatives at 1000, 10, and 0.1 nM.

[2] = target: T1, androgen receptor (AR); assay: Anti-adiol activity: modulation of AED-induced AR transactivation (MMTV-CAT assay); type: cell-based; settings: PC-3 cells, pSG5 AR + MMTV-CAT, 50 nM AED, compound at 10, 100 or 1000 nM; FIG. 2B
Description: as §1

[3] = target: T2, progesterone receptor (PR) (Homo sapiens, UniProt P06401); assay: Steroid hormone specificity: MMTV-CAT reporter with PR in PC-3 cells; settings: PC-3 cells transfected with MMTV-CAT and PR; FIG. 5
T2 sequence (P06401 1-933): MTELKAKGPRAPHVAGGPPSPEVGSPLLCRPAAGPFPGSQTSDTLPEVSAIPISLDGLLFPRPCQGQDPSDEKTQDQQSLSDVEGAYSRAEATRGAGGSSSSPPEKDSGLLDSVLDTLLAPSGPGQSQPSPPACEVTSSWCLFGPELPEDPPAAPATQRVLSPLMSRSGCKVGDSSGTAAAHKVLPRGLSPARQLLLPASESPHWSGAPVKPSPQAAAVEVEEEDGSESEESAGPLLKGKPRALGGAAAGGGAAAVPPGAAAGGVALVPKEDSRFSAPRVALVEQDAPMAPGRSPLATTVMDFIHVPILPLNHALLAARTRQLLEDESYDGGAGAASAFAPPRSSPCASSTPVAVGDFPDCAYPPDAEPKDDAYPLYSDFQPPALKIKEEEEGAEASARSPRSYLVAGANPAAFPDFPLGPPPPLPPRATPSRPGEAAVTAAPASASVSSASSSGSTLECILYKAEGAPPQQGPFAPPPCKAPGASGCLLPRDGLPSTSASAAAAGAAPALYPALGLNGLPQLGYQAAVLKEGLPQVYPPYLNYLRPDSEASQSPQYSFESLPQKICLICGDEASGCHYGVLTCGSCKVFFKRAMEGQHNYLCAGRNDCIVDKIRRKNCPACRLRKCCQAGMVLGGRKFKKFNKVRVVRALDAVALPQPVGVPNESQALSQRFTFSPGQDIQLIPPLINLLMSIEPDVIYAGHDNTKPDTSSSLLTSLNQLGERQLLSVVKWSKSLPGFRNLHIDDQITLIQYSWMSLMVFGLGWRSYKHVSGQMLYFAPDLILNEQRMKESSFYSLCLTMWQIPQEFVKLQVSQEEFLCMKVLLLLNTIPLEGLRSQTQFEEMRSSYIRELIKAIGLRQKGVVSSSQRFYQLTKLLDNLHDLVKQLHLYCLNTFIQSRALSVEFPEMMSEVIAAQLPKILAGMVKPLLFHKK
Experimental: Ethynyl derivatized steroids were purchased from Steraloids. The plasmid pSG5-wild-type AR (pSG5) and mouse mammalian tumor virus (MMTV)-chloramphenicol acetyltransferase (CAT) were constructed as described (6). […] The human prostate cancer cell line, PC-3, and human breast cancer cell line, MCF-7, were maintained in Dulbecco's modified eagles medium (DMEM) containing 10% fetal calf serum. DNA transfection and CAT assays were performed essentially as described (4, 6, 7). Briefly, 4×10^5 cells were plated on 60 mm dishes 24 h before transfection, and the medium was changed to DMEM (without phenol red) with 10% charcoal-stripped fetal calf serum 1 hour before transfection. The cells were transfected using the calcium phosphate precipitation method. The total amount of DNA was adjusted to 8.5 μg with pSG5 in each transfection assay. After transfecting the cells for 24 hours, the transfection medium was removed, fresh DMEM was added and steroids were added. The cells were then incubated in DMEM with steroids for 24 hours. After incubation, the cells were harvested and whole cell extracts were used for CAT assay. Transfection efficiency was normalized by cotransfection with a βgalactosidase vector, which acted as an internal control. The CAT enzyme activity was quantitated by phosphor imager according to the manufacturer's instructions (Molecular Dynamics).

[4] = target: T1, androgen receptor (AR); assay: Suppression of AED-induced AR transcriptional activity in the presence of HF (MMTV-CAT assay); type: cell-based; settings: PC-3 cells, 1 μM HF, 50 nM AED; FIG. 4
Description: as §1

Compound	androgenic activity (AR-mediated CAT gene transactivation) [1]	effect on AED-mediated AR transcriptional activity [2]	PR activity [3]	suppression of AED-mediated AR transcription activity by HF [4]
3β,17β-diacetoxy-androst-5-ene-7α,17β-diol [Compound 13]	little androgenic activity	either activation of AED-mediated AR transcriptional activity or they have no effect		
3β-methoxy-androst-5-ene-?,17β-diol [Compound 16]	little androgenic activity			
17-methyl-marrianolic acid [Compound 18]	little androgenic activity	either activation of AED-mediated AR transcriptional activity or they have no effect		
C#C[C@]1(O)CCC2C3CCc4cc(O)ccc4C3CC[C@@]21C (stereo partly drawn) [Compound 4, 1, 3, 5(10)-estratriene-17α-ethynyl-3β,17β-diol]			some weak PR activity	
C[C@]12C[C@H](O)[C@H]3[C@@H](CC=C4C[C@@H](O)CC[C@@]43C)[C@@H]1CC[C@@H]2O [Compound 5, androst-5-ene-3β,11β,17β-triol]	little androgenic activity	either activation of AED-mediated AR transcriptional activity or they have no effect		
C#C[C@]1(O)CCC2C3CC=C4C[C@@H](O)CC[C@]4(C)C3CC[C@@]21C (stereo partly drawn) [Compound 6, 17α-ethynyl-androst-5-ene-3β,17β-diol]	little androgenic activity	antagonized AED-mediated AR transcriptional activity		
C[C@]12CC[C@H]3[C@@H](CC=C4C[C@@H](O)CC[C@@]43C)[C@@H]1CC(=O)[C@@H]2O [Compound 8, 3β,17β-dihydroxy-androst-5-en-16-one]	little androgenic activity	antagonized AED-mediated AR transcriptional activity		
COC(=O)O[C@H]1CC[C@@]2(C)C(=CC(=O)[C@@H]3[C@@H]2CC[C@]2(C)C(=O)CC[C@@H]32)C1 [Compound 10, 3β,-methylcarbonate-androst-5-en-7,17-dione]	little androgenic activity	antagonized AED-mediated AR transcriptional activity		
CO[C@H]1CC[C@@]2(C)C(=CC(=O)[C@H]3[C@@H]4CC[C@H](O)[C@@]4(C)CC[C@@H]32)C1 [Compound 15, 3β-methoxy-17β-hydroxy-androst-5-ene-7-one]	little androgenic activity	either activation of AED-mediated AR transcriptional activity or they have no effect		
C[C@]12CC[C@H]3[C@@H](C(=O)C=C4C[C@@H](O)CC[C@@]43C)[C@@H]1CC[C@@H]2O [Compound 22, 7-oxo-androstene-3β,17β-diol]	little androgenic activity	either activation of AED-mediated AR transcriptional activity or they have no effect		
CC(C)(O)C(=O)Nc1ccc([N+](=O)[O-])c(C(F)(F)F)c1 [HF, hydroxyflutamide]				about 40%
